Experimental data from patent US12281081B2, “Herbicidal compounds” (SYNGENTA CROP PROTECTION AG, priority 2019, dated 2025).

Experiments:
barley crop plants = experiment: Crop phytotoxicity comparison, post-emergence
[1] = system: Echinochloa crus-galli (ECHCG); experiment: Pre-emergence herbicidal glasshouse test; format: in vivo; conditions: 250 g/Ha, evaluated after 13 days
Description: (§1) Compounds are applied at 250 g/h. […] NT=not tested.

Lolium perenne (LOLPE) [2] = experiment: Pre-emergence herbicidal glasshouse test; format: in vivo; conditions: 250 g/Ha, evaluated after 13 days
Description: as §1

[3] = system: Alopecurus myosuroides (ALOMY); experiment: Pre-emergence herbicidal glasshouse test; format: in vivo; conditions: 250 g/Ha, evaluated after 13 days
Description: as §1

Setaria faberi (SETFA) [4] = experiment: Pre-emergence herbicidal glasshouse test; format: in vivo; conditions: 250 g/Ha, evaluated after 13 days
Description: as §1

Avena fatua (AVEFA) [5] = experiment: Pre-emergence herbicidal glasshouse test; format: in vivo; conditions: 250 g/Ha, evaluated after 13 days
Description: as §1

wheat crop plants = experiment: Crop phytotoxicity comparison, post-emergence
[6] = system: Echinochloa crus-galli (ECHCG); experiment: Post-emergence herbicidal glasshouse test; format: in vivo; conditions: 250 g/Ha, evaluated after 13 days
Description: as §1

Lolium perenne (LOLPE) [7] = experiment: Post-emergence herbicidal glasshouse test; format: in vivo; conditions: 250 g/Ha, evaluated after 13 days
Description: as §1

[8] = system: Alopecurus myosuroides (ALOMY); experiment: Post-emergence herbicidal glasshouse test; format: in vivo; conditions: 250 g/Ha, evaluated after 13 days
Description: as §1

Setaria faberi (SETFA) [9] = experiment: Post-emergence herbicidal glasshouse test; format: in vivo; conditions: 250 g/Ha, evaluated after 13 days
Description: as §1

Avena fatua (AVEFA) [10] = experiment: Post-emergence herbicidal glasshouse test; format: in vivo; conditions: 250 g/Ha, evaluated after 13 days
Description: as §1

CC#Cc1cc(C)c(C2C(=O)CC3(CCN(S(=O)(=O)NC)CC3)CC2=O)c(C)c1 [Compound A3, 9-(2,6-dimethyl-4-prop-1-ynyl-phenyl)-N-methyl-8,10-dioxo-3-azaspiro[5.5]undecane-3-sulfonamide]
% phytotoxicity observed, Barley (barley crop plants; rate 30 g/ha): 0%
% phytotoxicity observed, Barley (barley crop plants; rate 60 g/ha): 0%
damage to the barley crop compared to prior art compound C1 (barley crop plants; summary of Table B3): significantly less damaging
percentage damage caused to the plant, ECHCG [1]: 5 (5=80-100%)
percentage damage caused to the plant, LOLPE (Lolium perenne (LOLPE) [2]): 5 (5=80-100%)
percentage damage caused to the plant, ALOMY [3]: 5 (5=80-100%)
percentage damage caused to the plant, SETFA (Setaria faberi (SETFA) [4]): 5 (5=80-100%)
percentage damage caused to the plant, AVEFA (Avena fatua (AVEFA) [5]): 5 (5=80-100%)
% phytotoxicity observed, Wheat (wheat crop plants; rate 30 g/ha): 0%
% phytotoxicity observed, Wheat (wheat crop plants; rate 60 g/ha): 0%
% phytotoxicity observed, Wheat (wheat crop plants; rate 60 g/ha + safener cloquintocet-mexyl (CQC) at 50 g/ha): 0%
damage to the wheat crop compared to prior art compound C1 (wheat crop plants; summary of Table B3): significantly less damaging
percentage damage caused to the plant, ECHCG [6]: 5 (5=80-100%)
percentage damage caused to the plant, LOLPE (Lolium perenne (LOLPE) [7]): 5 (5=80-100%)
percentage damage caused to the plant, ALOMY [8]: 5 (5=80-100%)
percentage damage caused to the plant, SETFA (Setaria faberi (SETFA) [9]): 5 (5=80-100%)
percentage damage caused to the plant, AVEFA (Avena fatua (AVEFA) [10]): 5 (5=80-100%)
